Here are results for four molecules from patent US4183848A, “Analgesic polypeptide” (American Home Products Corporation, priority 1977, dated 1980).

The test system of one test is guinea pig ileum. Particulars: cited from earlier work.
The conditions of test [1]: peripheral administration; cited from earlier work.
The next test concerns rats. Particulars: injection in the brain ventricle in rats; fully reversible by naloxone; cited from earlier work.
A further test deals with opiate receptor. The conditions noted are these: brain homogenates; cited from earlier work.
The next test deals with mouse vas deferens. Particulars: cited from earlier work.
In another test the test system is rat tail flick test. Briefly: rat tail flick test (method of D-Amour and Smith), analgesic activity. It counts as in vivo. The source says:
The representative polypeptide of this invention Tyr-D-Ala-Gly-Phe-2-MeAla-NH2, gave the following results in the reference standard rat tail flick test: […]
In general terms: Hot-plate and tail-flick tests time the reaction to a heat stimulus.

For test [2] the following is noted: intracerebroventricular administration; cited from earlier work.

Where a SMILES comes first, the peptide text is derived from it. [ ]: non-standard residue; d: D form. Aib = CC(C)(N)C(=O)O

As for “H-Tyr-Gly-Gly-Phe-Leu-OH [leucine-enkephalin]”, the “block of electrically evoked contractions” value in the test on guinea pig ileum and with mouse vas deferens was “mimic the ability of morphine to block electrically evoked contractions” in each case. The “activity when administered peripherally” value in test [1] is “inactive”. The analgesia entry with rats is reported as “profound analgesia”. For the same molecule, in the test on opiate receptor, the “inhibition of stereospecific receptor binding of 3H-naloxone” value is on record as “inhibit”.
For `CC(=O)O.C[C@@H](NC(=O)[C@@H](N)Cc1ccc(O)cc1)C(=O)NCC(=O)N[C@@H](Cc1ccccc1)C(=O)NC(C)(C)C(N)=O` [Tyr-D-Ala-Gly-Phe-2-MeAla-NH2, L-Tyrosyl-D-Alanylglycyl-L-Phenylalanyl-2-Methylalaninamide acetate] (H-Y[dA]GF[Aib]-NH2), the “No. showing analgesia/No. tested” value in the test with rat tail flick test (intravenous 1.0 milligram/kilogram, 15 minutes after administration) was 6/6; with rat tail flick test (intravenous 1.0 milligram/kilogram, 30 minutes after administration) it was 4/6; with rat tail flick test (intravenous 1.0 milligram/kilogram, 60 minutes after administration), 3/6; with rat tail flick test (intravenous 2.5 milligram/kilogram, 15 minutes after administration), 5/6; with rat tail flick test (intravenous 2.5 milligram/kilogram, 30 minutes after administration) it was 5/6; in the test with rat tail flick test (intravenous 2.5 milligram/kilogram, 60 minutes after administration), 2/6. For the same molecule, the “No. showing analgesia/No. tested” value is recorded as 5/5 in the test on rat tail flick test (intravenous 5.0 milligram/kilogram, 15 minutes after administration); 4/5 with rat tail flick test (intravenous 5.0 milligram/kilogram, 30 minutes after administration); 2/5 in the test on rat tail flick test (intravenous 5.0 milligram/kilogram, 60 minutes after administration); 0/6 with rat tail flick test (intravenous .5 milligram/kilogram, 15 minutes after administration); 1/6 in the test with rat tail flick test (intravenous .5 milligram/kilogram, 30 minutes after administration); 1/6 in the test on rat tail flick test (intravenous .5 milligram/kilogram, 60 minutes after administration). Also, the “No. showing analgesia/No. tested” value in the test with rat tail flick test (subcutaneous 5.0 milligram/kilogram, 30 minutes after administration) is on record as 3/6; in the test on rat tail flick test (subcutaneous 5.0 milligram/kilogram, 60 minutes after administration), 1/6; with rat tail flick test (subcutaneous 5.0 milligram/kilogram, 90 minutes after administration) it was 2/6; in the test with rat tail flick test (subcutaneous 5.0 milligram/kilogram, 120 minutes after administration), 0/6; in the test on rat tail flick test (subcutaneous 10.0 milligram/kilogram, 30 minutes after administration), 6/6; with rat tail flick test (subcutaneous 10.0 milligram/kilogram, 60 minutes after administration) it was 5/6. In addition, the “No. showing analgesia/No. tested” value is 2/6 with rat tail flick test (subcutaneous 10.0 milligram/kilogram, 90 minutes after administration) and 1/6 with rat tail flick test (subcutaneous 10.0 milligram/kilogram, 120 minutes after administration).
For Tyr-D-Ala-Gly-Phe-D-Leu, the “activity when administered intracerebroventricularly” value in test [2] is listed as “activity”.
In the case of “H-Tyr-Gly-Gly-Phe-Met-OH [methionine-enkephalin]”, the “block of electrically evoked contractions” value in the test on guinea pig ileum and in the test on mouse vas deferens was “mimic the ability of morphine to block electrically evoked contractions” in each case. For the same molecule, the “activity when administered peripherally” value in test [1] is “inactive”. In the test with rats, the analgesia result is “profound analgesia”. In addition, in the test with opiate receptor, the “inhibition of stereospecific receptor binding of 3H-naloxone” value is listed as “inhibit”.
